In patent publication US20210267939A1, “COMPOSITIONS AND METHODS FOR TREATING NAFLD/NASH AND RELATED DISEASE PHENOTYPES” (priority 2018, published 2021):

What was measured:
Format in all cases: in vivo
[1] = test system: BCKDH e1a; assay: Immunoblot of phospho-ser293 BCKDH e1a in tissues of treated Zucker fatty rats; conditions: ZFR, BT2 20 mg/kg i.p. daily for one week, vs vehicle
Procedure: (§1) Individually housed, male 12 week-old Zucker fatty rats (ZFR, Charles River Laboratories) maintained on a custom control low fat (LF) diet (A11072001, Research Diets) were used for the BDK inhibition and PPM1K overexpression studies. For the BDK inhibition study, ZFR were administered the small molecule BDK inhibitor 3,6-dichlorobenzo[b]thiophene-2-carboxylic acid (BT2, Sigma) daily at a dose of 20 mg/kg dissolved in 200 ul of sterile dimethylsulfoxide by i.p. injection for 7 days. The control group was administered an equal volume of vehicle each day. On day 6, following an overnight fast, ZFR were subjected to a 1 g/kg i.p. glucose tolerance test (GTT) precisely 1 hr after administration of BT2 (20 mg/kg i.p.) or vehicle. The glucose tolerance test was performed as described (White, et al., 2016). Following the GTT, rats were returned to their normal cages and provided free access to food and water. Indirect calorimetry was performed in a second cohort of BT2 treated rats on day 6 of BT2 administration. […]
Immunoblotting: Tissue lysates used for immunoblotting were prepared in Cell Lysis Buffer (Cell Signaling Technologies) containing protease inhibitor tablets (Roche), phosphatase inhibitor cocktails 2 and 3 (Sigma), and 10 mM PMSF. […] Immunoblots were developed using a Li-Cor Odyssey CLx and quantified using the Li-Cor software.

[2] = test system: Zucker fatty rats; assay: Liver triacylglyceride content in treated Zucker fatty rats; conditions: ZFR, BT2 20 mg/kg i.p. daily for one week, vs vehicle
Procedure: (§2) Individually housed, male 12 week-old Zucker fatty rats (ZFR, Charles River Laboratories) maintained on a custom control low fat (LF) diet (A11072001, Research Diets) were used for the BDK inhibition and PPM1K overexpression studies. For the BDK inhibition study, ZFR were administered the small molecule BDK inhibitor 3,6-dichlorobenzo[b]thiophene-2-carboxylic acid (BT2, Sigma) daily at a dose of 20 mg/kg dissolved in 200 ul of sterile dimethylsulfoxide by i.p. injection for 7 days. The control group was administered an equal volume of vehicle each day. […]
(§3) Plasma concentrations of the alpha-keto acids of leucine (α-keto-isocaproate, KIC), isoleucine (α-keto-β-methylvalerate, KMV) and valine (α-keto-isovalerate, KIV) were measured by LC-MS as previously described (Glynn et al., 2015; White et al., 2016). Other plasma analytes were measured on a Beckman DxC600 autoanalyzer, using reagents for lactate, total cholesterol, and triglycerides from Beckman, and non-esterified fatty acids (NEFA) and ketones (total and 3-hydroxybutyrate) from Wako (Richmond, Va.). Glycerol was measured using reagents from TG-B by Roche Diagnostics (Indianapolis, Ind.). Liver triglycerides were quantified using the triglyceride quantification kit from Abcam. Plasma insulin concentrations were measured with a Millipore EMD Rat insulin ELISA kit.

[3] = test system: Zucker fatty rats; assay: 1 g/kg i.p. glucose tolerance test in treated Zucker fatty rats; conditions: ZFR, BT2 20 mg/kg i.p., day 6, 1 g/kg i.p. glucose, vs vehicle
Procedure: as §2, §3

[4] = test system: Zucker fatty rats; assay: Other plasma analytes (lactate, lipids, ketones) in treated Zucker fatty rats; conditions: ZFR, BT2 20 mg/kg i.p. daily for one week, vs vehicle
Procedure: as §2, §3

[5] = test system: Zucker fatty rats; assay: Tissue acylcarnitine profiling in treated Zucker fatty rats; conditions: ZFR, BT2 20 mg/kg i.p. daily for one week, vs vehicle
Procedure: as §1, with “administration. Here ad-libitum fed rats were injected with BT2 (20 mg/kg i.p.) or vehicle immediately prior to being placed in an eight-chamber Oxymax system (Columbus Instruments) for seven hours. During their time in the metabolic cages all rats had free access to food and water.” for “administration.”
Metabolite profiling: Amino acids were measured in plasma and liver samples, and acylcarnitines in liver samples. […]

O=C(O)c1sc2cc(Cl)ccc2c1Cl [BT2, 3,6-dichlorobenzo[b]thiophene-2-carboxylic acid]
BCKDH phosphorylation in skeletal muscle [1]: not associated with a detectable change
BCKDH phosphorylation on serine 293 of the e1a subunit in liver and heart [1]: lower levels
hepatic TG levels [2]: significantly lower
glucose excursion during ipGTT [3]: significantly smaller
insulin excursion during ipGTT [3]: significantly smaller
circulating TG, cholesterol, glycerol, non-esterified fatty acids (NEFA), or ketones [4]: no effects
lactate in circulation [4]: lower levels
even chain acyl-carnitines in liver [5]: increases
even chain acyl-carnitines in skeletal muscle [5]: but not in skeletal muscle
